Measured values published in patent US11446279B2 (priority 2017, dated 2022).
Converted amounts (≈) assume the structure as drawn. Where two headings read alike, the source gives them in different places.

Columns and labels:
[1] = system: drug-resistant GNBs such as Pseudomonas aeruginosa, Escherichia coli, and Acinetobacter baumannii; assay: Growth inhibition of drug-resistant GNBs; assay type: cell-based; details: in words; E. coli species, A. baumannii, P. aeruginosa / gram-negative bacteria
E. coli (KAN) = assay: microbe, parasite or virus in culture; assay type: cell-based, Escherichia coli
P. aeruginosa SFGH 427 = assay: MIC against P. aeruginosa SFGH 427; assay type: cell-based, Pseudomonas aeruginosa
A. baumannii (Resistant) = assay: MIC against A. baumannii (Resistant); assay type: cell-based, Acinetobacter baumannii
E. coli ATCC25922 = assay: MIC against E. coli ATCC25922; assay type: cell-based, Escherichia coli
MRSA = assay: MIC against MRSA; assay type: cell-based, Methicillin-resistant Staphylococcus aureus
E. coli (AMP) = assay: MIC against E. coli (AMP); assay type: cell-based, Escherichia coli
E. coli SFGH 207 = assay: MIC against E. coli SFGH 207; assay type: cell-based, Escherichia coli
P. aeruginosa SFGH 266 = assay: MIC against P. aeruginosa SFGH 266; assay type: cell-based, Pseudomonas aeruginosa
A. baumannii (Sensitive) = assay: MIC against A. baumannii (Sensitive); assay type: cell-based, Acinetobacter baumannii
[2] = range stated jointly for MRSA and E. coli (ATCC 25922)

O=[N+]([O-])c1sccc1S(=O)(=O)F [compound 1, 2-nitrothiophene-3-sulfonyl fluoride]
antibacterial activity [1]: active
MICs (E. coli (KAN); E. coli (KAN)): 0.66 µg/mL
MICs (P. aeruginosa SFGH 427): 84 µg/mL
MICs (A. baumannii (Resistant)): 42 µg/mL
MICs (E. coli ATCC25922; E. coli ATCC25922): 1.32 µg/mL
MIC (E. coli ATCC25922; [2]): 1 to 5 µg/mL
MICs (MRSA; MRSA): 5.28 µg/mL
MIC (MRSA; [2]): 1 to 5 µg/mL
MICs (E. coli (AMP)): 10.6 µg/mL
MICs (E. coli SFGH 207): 42 µg/mL
MICs (P. aeruginosa SFGH 266): 42 µg/mL
MICs (A. baumannii (Sensitive)): 21 µg/mL

O=C1CN(/N=C/c2ccc([N+](=O)[O-])o2)C(=O)N1 [nitrofurantoin 7, nitrofurantoin, reference compound]
MIC (E. coli (KAN); Escherichia coli, read-out: MICs): 0.37 µg/mL (≈ 1.55 µM)
MIC (P. aeruginosa SFGH 427; Pseudomonas aeruginosa, SFGH427): > 95 µg/mL
MIC (A. baumannii (Resistant); Acinetobacter baumannii): > 95 µg/mL
MIC (E. coli ATCC25922; Escherichia coli, ATCC25922, range stated jointly for MRSA and E. coli (ATCC 25922), read-out: MIC): 5 to 12 µg/mL (≈ 21 to 50.4 µM)
MIC (E. coli ATCC25922; Escherichia coli, E. coli ATCC25922, read-out: MICs): 3 µg/mL (≈ 12.6 µM)
MIC (MRSA; Staphylococcus aureus, ATCC 25922 / MRSA, range stated jointly for MRSA and E. coli (ATCC 25922), read-out: MIC): 5 to 12 µg/mL (≈ 21 to 50.4 µM)
MIC (MRSA; Staphylococcus aureus, MRSA, read-out: MICs): 12 µg/mL (≈ 50.4 µM)
MIC (E. coli (AMP); Escherichia coli): 6 µg/mL (≈ 25.2 µM)
MIC (E. coli SFGH 207; Escherichia coli, SFGH207): 6 µg/mL (≈ 25.2 µM)
MIC (P. aeruginosa SFGH 266; Pseudomonas aeruginosa, SFGH266): > 95 µg/mL
MIC (A. baumannii (Sensitive); Acinetobacter baumannii): > 95 µg/mL
